Measured values from publication PMC5626011 (Bioorganic & Medicinal Chemistry Letters, 2017).

Tests used:
[1] = tested on: recombinant Ebola virus Makona expressing ZsGreen (rEBOV/ZsG); assay type: cell-based
EBOV (Makona) = assay type: cell-based, Ebola virus (EBOV)
SUDV (Gulu) = assay type: cell-based, Sudan virus (SUDV)
MARV (Ci67) = assay type: cell-based, Marburg virus (MARV)

With `CCC(CC)COC(=O)[C@H](C)N[P@](=O)(OCCOCn1cnc(-c2cnc(N)nc2OC)c1)Oc1ccccc1` [compound 3] the “fold less potent than compound 1” value [1] was about 10 fold.
In the case of `COc1nc(N)ncc1-c1cn(COCCO)cn1` [compound 1], the “EBOV EC50” value (EBOV (Makona)) is reported as “no detectable activity”, the “SUDV EC50” value (SUDV (Gulu)) is reported as “no detectable activity” and the “MARV EC50” value (MARV (Ci67)) is reported as “no detectable activity”. The EC50 ([1]; read-out: EBOV EC50) was 2.2 ± 0.3 µM.
